# Measured values: patent publication US20240351997A1, “NOVEL PARP7 INHIBITOR AND USE THEREOF” (SHANGHAI QILU PHARMACEUTICAL RESEARCH AND DEVELOPMENT …, priority 2021, published 2024)
# Biological target: PARP7 (Homo sapiens (Human), UniProt Q7Z3E1)
# Assay: In vitro enzymology experiment of PARP7 (enzymatic inhibition)
# Assay type: biochemical
# Outline: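 Histone-coated plate ADP-ribosylation format: compound preincubated 10 min at room temperature with preincubated (25 °C, 10 min) enzyme mixture; incorporated biotin detected by streptavidin-HRP and QuantaRed fluorescence (Ex550/Em620).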
# Sequence of PARP7 (Q7Z3E1 whole entry): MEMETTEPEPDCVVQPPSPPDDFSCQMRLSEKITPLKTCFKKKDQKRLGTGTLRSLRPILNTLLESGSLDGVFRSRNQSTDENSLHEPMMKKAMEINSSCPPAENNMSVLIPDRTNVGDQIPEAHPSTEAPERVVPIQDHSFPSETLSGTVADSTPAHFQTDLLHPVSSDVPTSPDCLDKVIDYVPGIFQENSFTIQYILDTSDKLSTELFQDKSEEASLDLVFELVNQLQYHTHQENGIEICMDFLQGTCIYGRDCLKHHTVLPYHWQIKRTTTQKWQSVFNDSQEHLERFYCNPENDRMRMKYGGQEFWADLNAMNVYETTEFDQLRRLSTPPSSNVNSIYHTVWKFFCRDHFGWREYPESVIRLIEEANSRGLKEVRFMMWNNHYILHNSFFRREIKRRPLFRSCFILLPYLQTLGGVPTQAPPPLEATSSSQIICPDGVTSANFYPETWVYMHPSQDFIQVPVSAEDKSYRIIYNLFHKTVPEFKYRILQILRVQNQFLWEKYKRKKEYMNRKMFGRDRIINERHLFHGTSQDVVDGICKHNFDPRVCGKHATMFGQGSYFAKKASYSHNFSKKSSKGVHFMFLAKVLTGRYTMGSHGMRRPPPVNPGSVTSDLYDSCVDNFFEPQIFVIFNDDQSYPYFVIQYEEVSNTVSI
row,SMILES,IC50
1,"Cc1cnc(N2C[C@H](C)N(C(=O)OCCc3c[nH]c(=O)c(C(F)(F)F)c3)[C@@H](C)C2)nc1 [Example 164, 2-(6-Oxo-5-(trifluoromethyl)-1,6-dihydropyridin-3-yl)ethyl (2S,6S)-2,6-dimethyl-4-(5-methylpyrimidin-2-yl)piperazine-1-carboxylate]",5.6 nM
2,"Cc1cnc(N2C[C@@H](C)N(C(=O)OCCc3c[nH]c(=O)c(C(F)(F)F)c3)C[C@@H]2C)nc1 [Example 168, 2-(6-Oxo-5-(trifluoromethyl)-1,6-dihydropyridin-3-yl)ethyl (2R,5S)-2,5-dimethyl-4-(5-methylpyrimidin-2-yl)piperazine-1-carboxylate]",0.9 nM
3,"Cc1cnc(N2C[C@@H](C)N(C(=O)O[C@@H](C)Cc3c[nH]c(=O)c(C(F)(F)F)c3)C[C@H]2C)nc1 [Example 169, (S)-1-(6-Oxo-5-(trifluoromethyl)-1,6-dihydropyridin-3-yl)propan-2-yl (2R,5R)-2,5-dimethyl-4-(5-methylpyrimidin-2-yl)piperazine-1-carboxylate]",0.7 nM
4,"Cc1cnc(N2C[C@@H](C)N(C(=O)O[C@@H](C)Cc3c[nH]c(=O)c(C(F)(F)F)c3)C[C@@H]2C)nc1 [Example 172, (S)-1-(6-Oxo-5-(trifluoromethyl)-1,6-dihydropyridin-3-yl)propan-2-yl (2R,5S)-2,5-dimethyl-4-(5-methylpyrimidin-2-yl)piperazine-1-carboxylate]",0.84 nM
5,"C[C@@H]1CN(c2ncc(C3CC3)cn2)C[C@H](C)N1C(=O)O[C@@H](C)Cc1c[nH]c(=O)c(C(F)(F)F)c1 [Example 174, (S)-1-(6-Oxo-5-(trifluoromethyl)-1,6-dihydropyridin-3-yl)propan-2-yl (2R,6S)-4-(5-cyclopropylpyrimidin-2-yl)-2,6-dimethylpiperazine-1-carboxylate]",1.3 nM
6,"C[C@@H](Cc1c[nH]c(=O)c(C(F)(F)F)c1)OC(=O)N1CCN(c2ncc(C3CC3)cn2)CC1 [Example 176, (S)-1-(6-Oxo-5-(trifluoromethyl)-1,6-dihydropyridin-3-yl)propan-2-yl 4-(5-cyclopropylpyrimidin-2-yl)piperazine-1-carboxylate]",1.7 nM
7,"C[C@@H](Cc1c[nH]c(=O)c(C(F)(F)F)c1)OC(=O)N1[C@@H](C)CN(c2ncc(C3CC3)cn2)C[C@@H]1C [Example 177, (S)-1-(6-Oxo-5-(trifluoromethyl)-1,6-dihydropyridin-3-yl)propan-2-yl (2S,6S)-4-(5-cyclopropylpyrimidin-2-yl)-2,6-dimethylpiperazine-1-carboxylate]",0.78 nM
8,"C[C@@H]1CN(C(=O)O[C@@H](C)Cc2c[nH]c(=O)c(C(F)(F)F)c2)[C@@H](C)CN1c1ncc(C2CC2)cn1 [Example 178, (S)-1-(6-Oxo-5-(trifluoromethyl)-1,6-dihydropyridin-3-yl)propan-2-yl (2S,5R)-4-(5-cyclopropylpyrimidin-2-yl)-2,5-dimethylpiperazine-1-carboxylate]",1.4 nM
9,"C[C@@H]1CN(c2ncc(C3CC3)cn2)[C@H](C)CN1C(=O)O[C@@H](C)Cc1c[nH]c(=O)c(C(F)(F)F)c1 [Example 179, (S)-1-(6-Oxo-5-(trifluoromethyl)-1,6-dihydropyridin-3-yl)propan-2-yl (2R,5R)-4-(5-cyclopropylpyrimidin-2-yl)-2,5-dimethylpiperazine-1-carboxylate]",1 nM
10,"C[C@@H]1CN(C(=O)OCCc2c[nH]c(=O)c(C(F)(F)F)c2)[C@@H](C)CN1c1ncc(C2CC2)cn1 [Example 183, 2-(6-Oxo-5-(trifluoromethyl)-1,6-dihydropyridin-3-yl)ethyl (2S,5R)-4-(5-cyclopropylpyrimidin-2-yl)-2,5-dimethylpiperazine-1-carboxylate]",1 nM

# Results, then the compound that gave them:
row,IC50,SMILES
1,0.91 nM,"C[C@@H]1CN(c2ncc(C(F)(F)F)cn2)[C@H](C)CN1C(=O)O[C@@H](C)Cc1c[nH]c(=O)c(C(F)(F)F)c1 [Example 161, (S)-1-(6-Oxo-5-(trifluoromethyl)-1,6-dihydropyridin-3-yl)propan-2-yl (2R,5R)-2,5-dimethyl-4-(5-(trifluoromethyl)pyrimidin-2-yl)piperazine-1-carboxylate]"
2,1.2 nM,"C[C@@H]1CN(C(=O)O[C@@H](C)Cc2c[nH]c(=O)c(C(F)(F)F)c2)C[C@H](C)N1c1ncc(C(F)(F)F)cn1 [Example 162, (S)-1-(6-Oxo-5-(trifluoromethyl)-1,6-dihydropyridin-3-yl)propan-2-yl (3S,5R)-3,5-dimethyl-4-(5-(trifluoromethyl)pyrimidin-2-yl)piperazine-1-carboxylate]"
3,0.75 nM,"Cc1cnc(N2C[C@@H](C)N(C(=O)OCCc3c[nH]c(=O)c(C(F)(F)F)c3)[C@@H](C)C2)nc1 [Example 163, 2-(6-Oxo-5-(trifluoromethyl)-1,6-dihydropyridin-3-yl)ethyl (2R,6S)-2,6-dimethyl-4-(5-methylpyrimidin-2-yl)piperazine-1-carboxylate]"
4,1 nM,"Cc1cnc(N2[C@H](C)CN(C(=O)OCCc3c[nH]c(=O)c(C(F)(F)F)c3)C[C@@H]2C)nc1 [Example 165, 2-(6-Oxo-5-(trifluoromethyl)-1,6-dihydropyridin-3-yl)ethyl (3S,5R)-3,5-dimethyl-4-(5-methylpyrimidin-2-yl)piperazine-1-carboxylate]"
5,0.65 nM,"Cc1cnc(N2C[C@H](C)N(C(=O)OCCc3c[nH]c(=O)c(C(F)(F)F)c3)C[C@H]2C)nc1 [Example 166, 2-(6-Oxo-5-(trifluoromethyl)-1,6-dihydropyridin-3-yl)ethyl (2S,5R)-2,5-dimethyl-4-(5-methylpyrimidin-2-yl)piperazine-1-carboxylate]"
6,0.87 nM,"Cc1cnc(N2C[C@H](C)N(C(=O)O[C@@H](C)Cc3c[nH]c(=O)c(C(F)(F)F)c3)C[C@H]2C)nc1 [Example 170, (S)-1-(6-Oxo-5-(trifluoromethyl)-1,6-dihydropyridin-3-yl)propan-2-yl (2S,5R)-2,5-dimethyl-4-(5-methylpyrimidin-2-yl)piperazine-1-carboxylate]"
7,1.4 nM,"Cc1cnc(N2C[C@H](C)N(C(=O)O[C@@H](C)Cc3c[nH]c(=O)c(C(F)(F)F)c3)[C@@H](C)C2)nc1 [Example 171, (S)-1-(6-Oxo-5-(trifluoromethyl)-1,6-dihydropyridin-3-yl)propan-2-yl (2S,6S)-2,6-dimethyl-4-(5-methylpyrimidin-2-yl)piperazine-1-carboxylate]"
8,0.74 nM,"C[C@@H]1CN(c2ncc(C3CC3)cn2)[C@@H](C)CN1C(=O)O[C@@H](C)Cc1c[nH]c(=O)c(C(F)(F)F)c1 [Example 173, (S)-1-(6-Oxo-5-(trifluoromethyl)-1,6-dihydropyridin-3-yl)propan-2-yl (2R,5S)-4-(5-cyclopropylpyrimidin-2-yl)-2,5-dimethylpiperazine-1-carboxylate]"
9,0.76 nM,"C[C@@H]1CN(c2ncc(C3CC3)cn2)C[C@@H](C)N1C(=O)O[C@@H](C)Cc1c[nH]c(=O)c(C(F)(F)F)c1 [Example 175, (S)-1-(6-Oxo-5-(trifluoromethyl)-1,6-dihydropyridin-3-yl)propan-2-yl (2R,6R)-4-(5-cyclopropylpyrimidin-2-yl)-2,6-dimethylpiperazine-1-carboxylate]"
10,1.3 nM,"C[C@@H]1CN(C(=O)OCCc2c[nH]c(=O)c(C(F)(F)F)c2)C[C@H](C)N1c1ncc(C2CC2)cn1 [Example 181, 2-(6-Oxo-5-(trifluoromethyl)-1,6-dihydropyridin-3-yl)ethyl (3S,5R)-4-(5-cyclopropylpyrimidin-2-yl)-3,5-dimethylpiperazine-1-carboxylate]"
11,5.5 nM,"C[C@H]1CN(c2ncc(C3CC3)cn2)C[C@H](C)N1C(=O)OCCc1c[nH]c(=O)c(C(F)(F)F)c1 [Example 182, 2-(6-Oxo-5-(trifluoromethyl)-1,6-dihydropyridin-3-yl)ethyl (2S,6S)-4-(5-cyclopropylpyrimidin-2-yl)-2,6-dimethylpiperazine-1-carboxylate]"
12,1.2 nM,"C[C@@H]1CN(c2ncc(C3CC3)cn2)[C@@H](C)CN1C(=O)OCCc1c[nH]c(=O)c(C(F)(F)F)c1 [Example 184, 2-(6-Oxo-5-(trifluoromethyl)-1,6-dihydropyridin-3-yl)ethyl (2R,5S)-4-(5-cyclopropylpyrimidin-2-yl)-2,5-dimethylpiperazine-1-carboxylate]"
